ChEMBL document CHEMBL5260858, “Targeting mycobacterial membranes and membrane proteins: Progress and limitations” (Bioorg Med Chem, 2023)
Converted amounts (≈) assume the structure as drawn.

How the values were obtained:
[1] = system: Mycobacterium tuberculosis; test: Antitubercular activity against Mycobacterium tuberculosis H37Rv assessed as bacterial growth inhibition incubated for 6 days by resazurin reduction microplate assay; type: functional; settings: 144 h, time 6 day
[2] = system: Mycobacterium tuberculosis; test: Antitubercular activity against Mycobacterium tuberculosis H37Rv infected in human HepG2 cells assessed as bacterial growth inhibition incubated for 4 weeks by resazurin reduction microtiter assay; type: functional, organism-based; settings: HepG2, 672 h
[3] = system: Mycobacterium tuberculosis; test: Antitubercular activity against Mycobacterium tuberculosis H37Rv infected in BALB/c mouse assessed as reduction in bacterial load at 200 mg/kg, po for 10 days by CFU analysis; type: functional; settings: time 10 day
[4] = system: Mycobacterium tuberculosis; test: Antitubercular activity against Mycobacterium tuberculosis H37Rv TMC102 assessed as bacterial growth inhibition; type: functional
[5] = system: Mycobacteroides abscessus; test: Antitubercular activity against Mycobacterium abscessus 3022 assessed as bacterial growth inhibition incubated 3 to 5 days by resazurin based broth microdilution method; type: functional; settings: time 3-5 day
[6] = system: Mycobacteroides abscessus; test: Antitubercular activity against Mycobacterium abscessus 2069 assessed as bacterial growth inhibition incubated 3 to 5 days by resazurin based broth microdilution method; type: functional; settings: time 3-5 day
[7] = system: Mycobacteroides abscessus; test: Antitubercular activity against Mycobacterium abscessus CIP104536 assessed as bacterial growth inhibition incubated 3 to 5 days by resazurin based broth microdilution method; type: functional; settings: time 3-5 day
[8] = system: Mycobacteroides abscessus; test: Antitubercular activity against Mycobacterium abscessus 2524 assessed as bacterial growth inhibition incubated 3 to 5 days by resazurin based broth microdilution method; type: functional; settings: time 3-5 day
[9] = system: Mycobacteroides abscessus; test: Antitubercular activity against Mycobacterium abscessus 3321 assessed as bacterial growth inhibition incubated 3 to 5 days by resazurin based broth microdilution method; type: functional; settings: time 3-5 day
[10] = system: Mycobacteroides abscessus; test: Antitubercular activity against Mycobacterium abscessus 5175 assessed as bacterial growth inhibition incubated 3 to 5 days by resazurin based broth microdilution method; type: functional; settings: time 3-5 day
[11] = system: Mycobacteroides abscessus; test: Antitubercular activity against Mycobacterium abscessus 2648 assessed as bacterial growth inhibition incubated 3 to 5 days by resazurin based broth microdilution method; type: functional; settings: time 3-5 day
[12] = system: Mycobacteroides abscessus; test: Antitubercular activity against Mycobacterium abscessus 1298 assessed as bacterial growth inhibition incubated 3 to 5 days by resazurin based broth microdilution method; type: functional; settings: time 3-5 day
[13] = system: Mycobacteroides abscessus; test: Antitubercular activity against Mycobacterium abscessus 2587 assessed as bacterial growth inhibition incubated 3 to 5 days by resazurin based broth microdilution method; type: functional; settings: time 3-5 day
[14] = system: Mycobacteroides abscessus; test: Antitubercular activity against Mycobacterium abscessus CF assessed as bacterial growth inhibition incubated 3 to 5 days by resazurin based broth microdilution method; type: functional; settings: time 3-5 day
[15] = system: Mycobacterium tuberculosis; test: Antitubercular activity against Mycobacterium tuberculosis H37Rv assessed as bacterial growth inhibition incubated for 7 days by Alamar blue based fluorescence assay; type: functional; settings: 168 h, time 7 day
[16] = system: Mycobacterium tuberculosis; test: Antitubercular activity against Mycobacterium tuberculosis H37Rv assessed as bacterial growth inhibition incubated for 14 days by agar plate method; type: functional; settings: 336 h, time 14 day
[17] = system: Mycobacterium tuberculosis; test: Antitubercular activity against Mycobacterium tuberculosis Erdman assessed as bacterial growth inhibition incubated for 14 days by agar plate method; type: functional; settings: 336 h, time 14 day
Mycobacterium marinum = test: Antitubercular activity against Mycobacterium marinum strain M assessed as bacterial growth inhibition incubated for 14 days by agar plate method; type: functional; settings: 336 h, time 14 day
[18] = system: Mycobacterium tuberculosis; test: Antimycobacterial activity against Mycobacterium tuberculosis CIP103471 infected in human U-937 cells assessed as bacterial growth inhibition incubated for 7 days; type: functional; settings: CIP103471, 168 h, time 7 day
[19] = system: Mycobacterium tuberculosis; test: In vivo antimycobacterial activity against Mycobacterium tuberculosis H37Rv infected in BALB/c mouse assessed as reduction in bacterial load in lungs at 40 to 100 mg/kg, po and measured after 4 weeks; type: functional; settings: dose 40-100 mg/kg
[20] = system: Mycobacterium tuberculosis; test: In vivo antimycobacterial activity against Mycobacterium tuberculosis H37Rv infected in BALB/c mouse assessed as reduction in bacterial load in spleen at 40 to 100 mg/kg, po and measured after 4 weeks; type: functional; settings: dose 40-100 mg/kg
[21] = system: Mycobacterium tuberculosis; test: Antitubercular activity against Mycobacterium tuberculosis ATCC 27294 (H37Rv) assessed as bacterial growth inhibition by agar dilution method; type: functional
[22] = system: Mycobacterium tuberculosis; test: Antitubercular activity against Mycobacterium tuberculosis assessed as bacterial growth inhibition in 7H9 medium incubated for 5 days by microplate reader analysis; type: functional; settings: 120 h, time 5 day
[23] = system: Mycobacterium tuberculosis; test: Antitubercular activity against Mycobacterium tuberculosis H37Rv assessed as extracellular bacterial growth inhibition; type: functional
[24] = system: Mycobacterium tuberculosis; test: Antitubercular activity against Mycobacterium tuberculosis H37Rv assessed as intracellular bacterial growth inhibition; type: functional
[25] = system: Mycobacterium tuberculosis; test: Antitubercular activity against Mycobacterium tuberculosis H37Rv expressing the luxABCDE operon assessed as bacterial growth inhibition incubated for 5 days in low oxygen condition by LORA Assay; type: functional; settings: 120 h, time 5 day
[26] = system: Mycobacterium tuberculosis; test: Antitubercular activity against Mycobacterium tuberculosis H37Rv assessed as bacterial growth inhibition incubated for 6 days by MABA analysis; type: functional; settings: 144 h, time 6 day
[27] = system: Mycobacterium tuberculosis; test: Antitubercular activity against Mycobacterium tuberculosis H37Rv expressing the luxABCDE operon assessed as bacterial growth inhibition incubated for 28 hrs in aerobic condition by luminescence analysis; type: functional
[28] = system: Mycobacterium tuberculosis; test: Antitubercular activity against Mycobacterium tuberculosis H37Rv expressing the luxABCDE operon infected in human THP-1 cells assessed as reduction in intracellular bacterial load incubated for 72 hrs by luminescence analysis; type: functional, organism-based; settings: THP-1, 72 h
[29] = system: Mycobacterium tuberculosis; test: In vivo antimycobacterial activity against Mycobacterium tuberculosis H37Rv infected in BALB/c mouse assessed as reduction in bacterial load at 200 mg/kg, po for 2 weeks; type: functional
[30] = system: Mycobacterium tuberculosis; test: In vivo antimycobacterial activity against Mycobacterium tuberculosis H37Rv infected in BALB/c mouse assessed as reduction in bacterial load at 300 mg/kg, po for 5 days; type: functional; settings: time 5 day
[31] = system: Mycobacterium tuberculosis; test: Antitubercular activity against Mycobacterium tuberculosis H37Rv assessed as bacterial growth inhibition by REMA analysis; type: functional
[32] = system: Mycobacterium tuberculosis; test: In vivo antimycobacterial activity against Mycobacterium tuberculosis H37Rv infected in mouse assessed as reduction in log10 CFU at 1 to 2 times MIC and measured after 10 days; type: functional; settings: time 10 day
[33] = system: Mycobacterium tuberculosis; test: Antimycobacterial activity against Mycobacterium tuberculosis H37Rv infected in THP-1 cells assessed as reduction in log10 CFU at MIC and measured after 2 to 7 days; type: functional; settings: time 2-7 day

Q: Which results are given for `O=C(/C=C/c1cccs1)N1CCN(Cc2ccc3c(c2)OCO3)CC1`?
A: MIC [1]: 0.05 µg/mL (≈ 0.14 µM); IC50 [2]: 0.1 µg/mL (≈ 0.281 µM); Activity [3]: 0.4 log10CFU

Q: `O=C(Nc1ccc(F)c(F)c1F)NC12CC3CC(CC(C3)C1)C2` was tested. Which MIC [4] did it give?
A: Its MIC is 0.1 µg/mL (≈ 0.308 µM).

Q: Which MIC [5] does the source give for `Cc1ccccc1CN1CCC(O)(c2ccc(Cl)c(C(F)(F)F)c2)CC1` here?
A: The MIC was 0.125 µg/mL (≈ 0.326 µM).

Q: What about the MIC [6] of the same molecule?
A: Its MIC is 0.125 µg/mL (≈ 0.326 µM).

Q: And the MIC [7]?
A: Its MIC is 0.125 µg/mL (≈ 0.326 µM).

Q: What about the MIC [8] of the same molecule?
A: The MIC was 0.125 µg/mL (≈ 0.326 µM).

Q: What about the MIC [9] of the same molecule?
A: The MIC was 0.125 µg/mL (≈ 0.326 µM).

Q: And the MIC [10]?
A: Its MIC is 0.125 µg/mL (≈ 0.326 µM).

Q: And the MIC [11]?
A: Its MIC is 0.125 µg/mL (≈ 0.326 µM).

Q: What about the MIC [12] of the same molecule?
A: Its MIC is 0.125 µg/mL (≈ 0.326 µM).

Q: What about the MIC [13] of the same molecule?
A: Its MIC is 0.125 µg/mL (≈ 0.326 µM).

Q: What about the MIC [14] of the same molecule?
A: The MIC was 0.125 µg/mL (≈ 0.326 µM).

Q: How did the MIC [15] turn out when `COc1ncccc1Nc1cc2nc3ccccc3n(-c3ccc(OC(F)(F)F)cc3)c-2c/c1=N\C1CCC(OC)CC1` (centres undefined) was run?
A: Its MIC is 0.016 µg/mL (≈ 0.0271 µM).

Q: Which MIC [16] does the source give for `Cc1cc2oc(=O)cc(-c3cccc(N)c3)c2c(C)c1-c1ccc(CN2CCOCC2)cc1` here?
A: The MIC was 0.24 µM (≈ 0.106 µg/mL).

Q: And the MIC [17]?
A: Its MIC is 0.4 µM (≈ 0.176 µg/mL).

Q: What about the MIC (Mycobacterium marinum) of the same molecule?
A: The MIC was 0.83 µM (≈ 0.366 µg/mL).

Q: With `Cc1c(CN2CCN(C)CC2)cc(-c2ccc(Cl)cc2)n1-c1ccc(Cl)cc1` as the molecule, how does the MIC [18] read?
A: The MIC was 1 µg/mL (≈ 2.41 µM).

Q: What does the source list for `CCOC(=O)NC(=O)c1ccsc1NC(=O)c1nc2ccccc2s1`?
A: Activity [19]: 2 log10CFU; Activity [20]: 3 log10CFU; MIC [21]: 0.19 µg/mL (≈ 0.506 µM); MIC [22]: 0.19 µg/mL (≈ 0.506 µM)

Q: Which MIC [23] does the source give for `COc1ccc(OCCNC(=O)c2cc([N+](=O)[O-])cc([N+](=O)[O-])c2)cc1` here?
A: Its MIC is 0.2 µM (≈ 0.0723 µg/mL).

Q: What about the MIC [24] of the same molecule?
A: Its MIC is 0.2 µM (≈ 0.0723 µg/mL).

Q: How did the MIC [25] turn out when `CCOC(=O)c1c(NC(=O)c2c(F)c(F)c(F)c(F)c2F)sc2c1CCN(CC)C2` was run?
A: The MIC was over 200 µM.

Q: And the MIC [26]?
A: Its MIC is 0.69 µM (≈ 0.309 µg/mL).

Q: And the MIC [27]?
A: Its MIC is 0.23 µM (≈ 0.103 µg/mL).

Q: What about the IC50 [28] of the same molecule?
A: Its IC50 is 5.6 µM.

Q: `CNC(=O)c1c(-c2ccc(O)cc2)oc2ccc(O)c(CN3CCCCC3)c12` was tested. Which Activity [29] did it give?
A: Its Activity is 6.8 log10CFU.

Q: And the Activity [30]?
A: Its Activity is 7 log10CFU.

Q: `COc1ncnc(Cn2cnc3c(C(=O)NCCF)cccc32)c1C` was tested. Which MIC [31] did it give?
A: Its MIC is 1.56 µM (≈ 0.536 µg/mL).

Q: And the Activity [32]?
A: The Activity was over 3 log10CFU.

Q: What about the Activity [33] of the same molecule?
A: Its Activity is 1 log10CFU.
